Data taken from publication PMC4536076, “Chemical Library Screening and Structure-Function Relationship Studies Identify Bisacodyl as a Potent and Selective Cytotoxic Agent Towards Quiescent Human Glioblastoma Tumor Stem-Like Cells” (PLoS ONE, 2015).
Counter-ions that a name gives are not always drawn. Like-named read-outs stand apart in the source and are kept apart here.

Experiments:
proliferating TG1 GSCs [1] = test: ATP-Glo dose-response, proliferating TG1 GSCs; format: cell-based, human
Description: (§1) The EC50 value was determined for each compound by fitting the data points according to the following equation: y=Smax+Smin*(x*1/EC50)^n/1+(x*1/EC50)^n where y represents the expected response, x is the chemical compound concentration, S max and S min are the maximum and minimum responses recorded, respectively and n is the Hill coefficient. Curve fitting was performed using Microsoft Excel Solver component.
(§2) Proliferating or quiescent TG1 cells were seeded in 50 μL of their respective media (30 000 and 40 000 viable cells/well, respectively) into 96-well opaque bottom plates (Greiner, Courtaboeuf, France). Compound treatment was performed by adding 50 μL of compound solutions (in the presence of 2% DMSO in culture medium). […] All compounds were tested in triplicate in each experiment. Independent experiments were performed at least twice for almost all of the compounds.

quiescent TG1 GSCs [2] = test: ATP-Glo dose-response, quiescent TG1 GSCs; format: cell-based, human
Description: as §1, §2

proliferating TG16 GSCs = test: ATP-Glo dose-response, proliferating TG16 GSCs; format: cell-based, human; details: Homo sapiens; ATP Glo readout, 24 h treatment; read-out: P TG16 GSCs EC50
Description: as §1
(§3) Similar dose response curves were performed using GSCs isolated from GBM of two other patients (TG16 and OB1 GSCs) grown under proliferating and quiescent conditions.

quiescent TG16 GSCs = test: ATP-Glo dose-response, quiescent TG16 GSCs; format: cell-based, human; details: Homo sapiens; ATP Glo readout, 24 h treatment; read-out: Q TG16 GSCs EC50
Description: as §1, §3

proliferating OB1 GSCs = test: ATP-Glo dose-response, proliferating OB1 GSCs; format: cell-based; details: Homo sapiens; ATP Glo readout, 24 h treatment; read-out: P OB1 GSCs EC50
Description: as §1, §3

quiescent OB1 GSCs = test: ATP-Glo dose-response, quiescent OB1 GSCs; format: cell-based, human; details: Homo sapiens; ATP Glo readout, 24 h treatment; read-out: Q OB1 GSCs EC50
Description: as §1, §3

[3] = test system: primary astrocytes (HA cells); test: ATP-Glo dose-response, primary astrocytes; format: cell-based, human; details: Homo sapiens, Astrocyte; for EC50: ATP Glo readout, 24 h treatment
[4] = test system: fetal neural stem cells (f-NSC); test: ATP-Glo dose-response, fetal neural stem cells; format: cell-based; details: Homo sapiens, Neural stem cell; ATP Glo readout, 24 h treatment
HEK 293 cells = test: ATP-Glo dose-response, HEK 293 cells; format: cell-based, human; details: Homo sapiens, HEK293; ATP Glo readout, 24 h treatment
Description: as §1, with “component. […]” for “component.”

quiescent TG1 GSCs [5] = details: primary screen, 50 μM, 24 h
How it was run: (§4)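 Cells seeded at 30 000 (proliferating) or 40 000 (quiescent) viable cells/well and treated with compound at 50 μM final, 1% DMSO, single test; hits retested in duplicate at 50 and 5 μM. ATP measured by luminescence, as percent of the mean signal of DMSO control wells.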

quiescent TG1 cells = test: Cell viability, trypan blue staining, quiescent TG1 cells; format: cell-based, human; details: quiescent TG1 GSCs, 10 μM, 24 hours
Description: Cell mortality was evaluated by trypan blue staining (0.1% (v/v)).

Solubility measurements = format: physicochemical; details: data not shown
proliferating TG1 GSCs [6] = details: primary screen, 50 μM, 24 h
How it was run: as §4

Astrocytes = test system: Astrocytes; design: method as in PMID 23039130; details: literature, ref [104]; cited from earlier work
[7] = test system: human colon cancer cell line HT29; design: method as in PMID 1888153; details: ref [58], read-out: EC50, decrease of proliferation; cited from earlier work
[8] = Homo sapiens, 24 h, ATP Glo readout, 24 h treatment, n = 3, read-out: P TG1 GSCs EC50
[9] = Homo sapiens, 24 h, ATP Glo readout, 24 h treatment, n = 3, read-out: Q TG1 GSCs EC50

Row | SMILES | EC50 (proliferating TG1 GSCs [1]; [8]) [µM] | EC50 (quiescent TG1 GSCs [2]; ATP Glo readout, 24 h treatment, n = 3, listed as Bisacodyl, read-out: Q TG1 GSCs EC50) [µM] | EC50 (quiescent TG1 GSCs [2]; [9]) [µM] | EC50 (proliferating TG16 GSCs) [µM] | EC50 (quiescent TG16 GSCs) [µM] | EC50 (proliferating OB1 GSCs) [µM] | EC50 (quiescent OB1 GSCs) [µM] | EC50 [3] [µM] | Emax ([3]; HA cells, not due to cell death, read-out: maximum effect: reduction of ATP levels) [%] | EC50 [4] [µM] | EC50 (HEK 293 cells) [µM] | Activity on quiescent TG1 GSCs (hit compounds reducing ATP levels) (quiescent TG1 GSCs [5]) | cell viability (trypan blue and 7-AAD staining) (quiescent TG1 cells) | EC50 (proliferating TG1 GSCs [1]; Homo sapiens, 24 h, SAR study, ATP-Glo cell survival assay, 24 h, triplicate, read-out: Proliferating TG1 GSCs EC50) [µM] | EC50 (quiescent TG1 GSCs [2]; Homo sapiens, 24 h, SAR study, ATP-Glo cell survival assay, 24 h, triplicate, read-out: Quiescent TG1 GSCs EC50) [µM] | solubility (Solubility measurements) | Activity on proliferating TG1 GSCs (hit compounds reducing ATP levels) (proliferating TG1 GSCs [6]) | EC50 (Astrocytes) [µM] | EC50 [7] [µM] | EC50 (proliferating TG1 GSCs [1]; ATP Glo readout, 24 h treatment, n = 3, read-out: P TG1 GSCs EC50) [µM]
1 | CC(=O)Oc1ccc(C(c2ccc(OC(C)=O)cc2)c2ccccn2)cc1 [Compound 1, 4,4'-diacetoxydiphenyl-2-pyridyl-methane] | > 100 | 1.07 ± 0.04 | ~1 | > 100 | 1.3 ± 0.1 | > 100 | 0.5 ± 0.1 | 0.6 ± 0.3 | 30 | > 100 | > 100 | yes | resulted from cell death | – | – | – | – | – | – | –
2 | c1ccc(C(c2ccccc2)c2ccccn2)cc1 [Compound 6, Diphenyl-2-pyridylmethane] | – | – | – | – | – | – | – | – | – | – | – | – | – | > 100 | 84.8 ± 4.1 | not due to reduced solubility | – | – | – | –
3 | C=C1C(=O)O[C@H]2[C@H]1CC/C(C)=C/CC[C@@]1(C)O[C@@H]21 [Parthenolide] | 15 ± 2 | – | 48 ± 6 | 10 ± 2 | – | 18 ± 4 | 35 ± 11 | 59 ± 4 | – | 8.4 ± 0.2 | 13 ± 5 | yes | – | – | – | – | yes | 186 ± 10 | – | –
4 | C1CCC(C(CC2CCCCN2)C2CCCCC2)CC1 (stereo not drawn) [Perhexilin maleate] | 10 ± 1 | – | 14 ± 3 | 11 ± 1 | 21 ± 4 | 12 ± 1 | 22 ± 4 | 12 ± 2 | – | 3 ± 1 | 12 ± 1 | yes | – | – | – | – | yes | – | ~10 | –
5 | CC(C)(C)c1ccc(C(O)CCCN2CCC(C(O)(c3ccccc3)c3ccccc3)CC2)cc1 (stereo not drawn) [Terfenadine] | ~10 | – | 17 ± 1 | 9 ± 1 | 24 ± 6 | 10 ± 2 | 22 ± 4 | 9 ± 2 | – | 4 ± 1 | 8 ± 1 | yes | – | – | – | – | yes | – | – | 8 ± 1
